Source: PubChem BioAssay (NCI)
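Each compound was tested at five concentrations against cells in 96-well plates for 48 hours. TGI denotes the concentration required for complete inhibition of growth.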

Assays:
Test in all cases: NCI tumour cell line growth inhibition, 48 h
786-0 renal = tested on: 786-0 renal
A549 NSCLC = tested on: A549 NSCLC
ACHN renal = tested on: ACHN renal
CAKI-1 renal = tested on: CAKI-1 renal
CCRF-CEM leukemia = tested on: CCRF-CEM leukemia
COLO 205 colon = tested on: COLO 205 colon
DLD-1 colon = tested on: DLD-1 colon
DMS 114 small cell lung = tested on: DMS 114 small cell lung
DMS 273 small cell lung = tested on: DMS 273 small cell lung
EKVX NSCLC = tested on: EKVX NSCLC
HCC-2998 colon = tested on: HCC-2998 colon
HCT-116 colon = tested on: HCT-116 colon
HCT-15 colon = tested on: HCT-15 colon
HL-60(TB) leukemia = tested on: HL-60(TB) leukemia
HOP-18 NSCLC = tested on: HOP-18 NSCLC
HOP-62 NSCLC = tested on: HOP-62 NSCLC
HT29 colon = tested on: HT29 colon
IGROV1 ovarian = tested on: IGROV1 ovarian
K-562 leukemia = tested on: K-562 leukemia
KM20L2 colon = tested on: KM20L2 colon
LOX IMVI melanoma = tested on: LOX IMVI melanoma
LXFL 529 NSCLC = tested on: LXFL 529 NSCLC
M14 melanoma = tested on: M14 melanoma
M19-MEL melanoma = tested on: M19-MEL melanoma
MALME-3M melanoma = tested on: MALME-3M melanoma
MOLT-4 leukemia = tested on: MOLT-4 leukemia
NCI-H226 lung = tested on: NCI-H226 lung
NCI-H23 lung = tested on: NCI-H23 lung
NCI-H522 lung = tested on: NCI-H522 lung
OVCAR-3 ovarian = tested on: OVCAR-3 ovarian
OVCAR-4 ovarian = tested on: OVCAR-4 ovarian
OVCAR-5 ovarian = tested on: OVCAR-5 ovarian
OVCAR-8 ovarian = tested on: OVCAR-8 ovarian
RPMI-8226 leukemia = tested on: RPMI-8226 leukemia
RXF 393 renal = tested on: RXF 393 renal
RXF-631 renal = tested on: RXF-631 renal
SF-268 CNS = tested on: SF-268 CNS
SF-295 CNS = tested on: SF-295 CNS
SF-539 CNS = tested on: SF-539 CNS
SK-MEL-2 melanoma = tested on: SK-MEL-2 melanoma
SK-MEL-28 melanoma = tested on: SK-MEL-28 melanoma
SK-MEL-5 melanoma = tested on: SK-MEL-5 melanoma
SK-OV-3 ovarian = tested on: SK-OV-3 ovarian
SN12C renal = tested on: SN12C renal
SNB-19 CNS = tested on: SNB-19 CNS
SNB-75 CNS = tested on: SNB-75 CNS
SNB-78 CNS = tested on: SNB-78 CNS
SR leukemia = tested on: SR leukemia
SW-620 colon = tested on: SW-620 colon
TK-10 renal = tested on: TK-10 renal
U251 CNS = tested on: U251 CNS
UACC-257 melanoma = tested on: UACC-257 melanoma
UACC-62 melanoma = tested on: UACC-62 melanoma
UO-31 renal = tested on: UO-31 renal
A498 renal = tested on: A498 renal
HOP-92 NSCLC = tested on: HOP-92 NSCLC
KM12 colon = tested on: KM12 colon
NCI-H460 lung = tested on: NCI-H460 lung
XF 498 CNS = tested on: XF 498 CNS

CCOC(=O)C(=O)Nc1ccc(Cl)c(C(F)(F)F)c1
TGI (786-0 renal): > 100 µM | TGI (A549 NSCLC): > 100 µM | TGI (ACHN renal): > 100 µM | TGI (CAKI-1 renal): > 100 µM | TGI (CCRF-CEM leukemia): > 100 µM | TGI (COLO 205 colon): > 100 µM | TGI (DLD-1 colon): > 100 µM | TGI (DMS 114 small cell lung): > 100 µM | TGI (DMS 273 small cell lung): > 100 µM | TGI (EKVX NSCLC): > 100 µM | TGI (HCC-2998 colon): > 100 µM | TGI (HCT-116 colon): > 100 µM | TGI (HCT-15 colon): > 100 µM | TGI (HL-60(TB) leukemia): > 100 µM | TGI (HOP-18 NSCLC): > 100 µM | TGI (HOP-62 NSCLC): > 100 µM | TGI (HT29 colon): > 100 µM | TGI (IGROV1 ovarian): > 100 µM | TGI (K-562 leukemia): > 100 µM | TGI (KM20L2 colon): > 100 µM | TGI (LOX IMVI melanoma): > 100 µM | TGI (LXFL 529 NSCLC): > 100 µM | TGI (M14 melanoma): > 100 µM | TGI (M19-MEL melanoma): > 100 µM | TGI (MALME-3M melanoma): > 100 µM | TGI (MOLT-4 leukemia): > 100 µM | TGI (NCI-H226 lung): > 100 µM | TGI (NCI-H23 lung): > 100 µM | TGI (NCI-H522 lung): > 100 µM | TGI (OVCAR-3 ovarian): > 100 µM | TGI (OVCAR-4 ovarian): > 100 µM | TGI (OVCAR-5 ovarian): > 100 µM | TGI (OVCAR-8 ovarian): > 100 µM | TGI (RPMI-8226 leukemia): > 100 µM | TGI (RXF 393 renal): > 100 µM | TGI (RXF-631 renal): > 100 µM | TGI (SF-268 CNS): > 100 µM | TGI (SF-295 CNS): > 100 µM | TGI (SF-539 CNS): > 100 µM | TGI (SK-MEL-2 melanoma): > 100 µM | TGI (SK-MEL-28 melanoma): > 100 µM | TGI (SK-MEL-5 melanoma): > 100 µM | TGI (SK-OV-3 ovarian): > 100 µM | TGI (SN12C renal): > 100 µM | TGI (SNB-19 CNS): > 100 µM | TGI (SNB-75 CNS): > 100 µM | TGI (SNB-78 CNS): > 100 µM | TGI (SR leukemia): > 100 µM | TGI (SW-620 colon): > 100 µM | TGI (TK-10 renal): > 100 µM | TGI (U251 CNS): > 100 µM | TGI (UACC-257 melanoma): > 100 µM | TGI (UACC-62 melanoma): > 100 µM | TGI (UO-31 renal): > 100 µM

Nc1nc(SCCC/C=C/I)nc2c1ncn2C1OC(CO)C(O)C1O (stereo not drawn)
TGI (786-0 renal): > 202 µM | TGI (A498 renal): > 202 µM | TGI (A549 NSCLC): > 202 µM | TGI (ACHN renal): > 202 µM | TGI (CAKI-1 renal): > 202 µM | TGI (CCRF-CEM leukemia): > 202 µM | TGI (COLO 205 colon): > 202 µM | TGI (DLD-1 colon): > 202 µM | TGI (DMS 114 small cell lung): > 202 µM | TGI (DMS 273 small cell lung): > 202 µM | TGI (HCT-116 colon): > 202 µM | TGI (HCT-15 colon): > 202 µM | TGI (HL-60(TB) leukemia): > 202 µM | TGI (HOP-18 NSCLC): > 202 µM | TGI (HOP-62 NSCLC): > 202 µM | TGI (HOP-92 NSCLC): > 202 µM | TGI (HT29 colon): > 202 µM | TGI (IGROV1 ovarian): > 202 µM | TGI (K-562 leukemia): > 202 µM | TGI (KM12 colon): > 202 µM | TGI (KM20L2 colon): > 202 µM | TGI (LOX IMVI melanoma): > 202 µM | TGI (M14 melanoma): > 202 µM | TGI (M19-MEL melanoma): > 202 µM | TGI (MALME-3M melanoma): > 202 µM | TGI (MOLT-4 leukemia): > 202 µM | TGI (NCI-H226 lung): > 202 µM | TGI (NCI-H23 lung): > 202 µM | TGI (NCI-H460 lung): > 202 µM | TGI (NCI-H522 lung): > 202 µM | TGI (OVCAR-3 ovarian): > 202 µM | TGI (OVCAR-4 ovarian): > 202 µM | TGI (OVCAR-5 ovarian): > 202 µM | TGI (OVCAR-8 ovarian): > 202 µM | TGI (RPMI-8226 leukemia): > 202 µM | TGI (SF-268 CNS): > 202 µM | TGI (SF-295 CNS): > 202 µM | TGI (SF-539 CNS): > 202 µM | TGI (SK-MEL-2 melanoma): > 202 µM | TGI (SK-MEL-28 melanoma): > 202 µM | TGI (SK-MEL-5 melanoma): > 202 µM | TGI (SK-OV-3 ovarian): > 202 µM | TGI (SN12C renal): > 202 µM | TGI (SNB-19 CNS): > 202 µM | TGI (SNB-75 CNS): > 202 µM | TGI (SNB-78 CNS): > 202 µM | TGI (SR leukemia): > 202 µM | TGI (SW-620 colon): > 202 µM | TGI (TK-10 renal): > 202 µM | TGI (U251 CNS): > 202 µM | TGI (UACC-257 melanoma): > 202 µM | TGI (UACC-62 melanoma): > 202 µM | TGI (UO-31 renal): > 202 µM | TGI (XF 498 CNS): > 202 µM
